The values that follow come from patent US8852628B1, “Transdermal drug delivery system for diclofenac” (Noven Pharmaceuticals, Inc., priority 2009, dated 2014).

The structures appear in SMILES notation.

The nature of the data set: in-vitro permeation study utilizing modified Franz cells (flux). It counts as in vitro ADME, human. Particulars: diclofenac sodium, acid and potassium as single entities in formulations similar to the examples; particularly with oleic acid and dipropylene glycol. The method, then:
The flux data was collected from an in-vitro permeation study utilizing modified Franz cells with stratum corneum obtained from human cadaver skin by the heat separation technique. The receiver solution for this study was 0.9% NaCl with 0.01% NaN3 in deionized water. Franz cells were maintained at about 32° C. for the duration of this study. Flux samples were analyzed by HPLC.

Consider `O=C(O)Cc1ccccc1Nc1c(Cl)cccc1Cl` [diclofenac potassium], for which the “flux rate, drug forms fluxed as single entities” value is listed as “highest rate”.
